Common to all, as to assay type: cell-based, human
The test system of one assay is CD19+ mKate2+A549 cells. The assay can be described thus: CAR-T tumor spheroid killing assay. Here is the method:
CD19+ mKate2+A549 cells were produced by lentiviral transduction using pCDH-CMV-CD19 puro and ILV-EF1a-mKate-9-X01 (Flash therapeutics) lentivectors. 1,000 cells were plated 4 days prior to co-culture in low-cluster 96 well plates (Costar #7007) and allowed to form spheroids in DMEM 10% FBS 5% PS. Total CD3+ T cells were isolated by negative selection from PBMCs (Stemcell #17951) and stimulated with Dynabeads at a ratio of 1:3 (beads:cell). Cells were cultured at 1 million per ml in X-VIVO 15 with 5% PS, 5% decomplemented human serum (Sigma) and 50 μM 2-mercaptoethanol (GIBCO #31350-010). 24 hours following TCR stimulation 100,000 cells in 100 μl were co-transduced with 100 μl of lentivector viral particles (pTRIP-SFFV-GFP or pTRIP-SFFV-GFPRELAK5R) combined with the CAR lentivirus (rLV.EFA.19BBz, Flash therapeutics) at a multiplicity of infection (MOI) of 10 (corresponding usually to less than 1 μl). Spinoculation was carried out at 1200 g for 2 hours at 25° C. Cells were expanded for 48 hours with fresh media and 300 U/ml IL-2. 3 days following transduction T cells were stained with CD19 CAR detection reagent (miltenyi 130-115-965) for 15 minutes at 4° C., washed twice and subsequently with secondary antibody (invitrogen #S21374) for 30 minutes at 4° C. Cells were fixed and acquired on a FACSVerse (BD). The next day, Dynabeads were removed by magnetic separation and 250, 500 or 1,000 CAR+ cells were added per well of A549 spheroids in quadruplicates. Plates were then placed in an IncuCyteS3 and images were acquired using a 10× objective ([…]/pixel) every 3 hours for 5 to 6 days. Images were analysed using the IncuCyte S3 software. At the end of the culture, supernatants were harvested and assayed for IFN concentrations.

A further assay concerns cGAS. The assay can be described thus: cGAS localization by confocal microscopy in CD4+ T cells. Particulars: activated CD4+ T cells overexpressing IRF3 or RELA K5R, FIG. 5D, 5E. On the procedure: 4 to 5 days following transduction, 500,000 cells were plated on 0.1% poly-L lysine in water (Sigma #8920) coated coverslips and left for 30 minutes to attach. Cells were fixed in PBS 4% paraformaldehyde for 20 minutes at room temperature (RT). Coverslips were washed twice in PBS and quenched with 500 μl of freshly prepared PBS Glycine (375 mg Glycine in 50 mL of PBS) for 10 minutes at room temperature. […] Coverslips were incubated with primary antibody against cGAS (clone D1 D3G) or isotype control (clone DA1E) at a concentration of 0.085 μg/ml in PBS 0.2% BSA 0.05% saponin and left overnight at 4° C. in a moist chamber. Coverslips were washed 5 times with PBS 0.2% BSA 0.05% saponin and incubated in secondary antibody goat anti-Rabbit IgG at 1:400 (Invitrogen #A21246) for 45 minutes at RT. Coverslips were washed 5 times with PBS 0.2% BSA 0.05% saponin, rinsed in water and mounted on a glass slide using 10 μl fluoromount-G with DAPI (Invitrogen #00-4959-520). Glass slides were allowed to dry in a 37° C. chamber for 30 minutes and stored at 4° C. Images were acquired on a Leica Dml8 inverted microscope equipped with an SP8 confocal unit using a 40× (1.3 NA) oil objective. Image analysis was performed using Fiji software^77. […] Average cGAS and GFP intensities were measured in the whole cell, the nuclei and the cytosol (defined by the whole cell excluding the nuclear region).

The test system of assay [1] is IFNL1 and IFNB transcripts. The assay can be described thus: RT-qPCR gene expression analysis in CD4+ T cells. The settings on record: IRF3 over-expression in CD4+ T cells, data not shown. On the procedure: RNA was extracted from 0.4-1 million cells using the Nucleospin RNA II kits (Macherey-Nagel #740955.50). cDNA was synthesized using random primers (invitrogen #48190-011) from 0.1 μg RNA using Superscript III Reverse transcriptase (fisher scientific #18080044). Real-time qPCR (RT-qPCR) was carried out in 20 μl reactions using SYBR Green I Master (Roche #4887352001). Primers used were as follows: […]
Background: Real-time PCR tracks product formation cycle by cycle.

In the case of “RELA K5R: RELA mutant converting five lysine residues (K122, K123, K310, K314, K315) to arginine, expressed from lentivector”, the “IFNL1 at the end of co-culture” value with CD19+ mKate2+A549 cells (6 days co-culture, all dilutions of CART and RELA K5R cells) was “detected”. Further, the “tumor growth with lower numbers of CAR T cells” value in the assay with CD19+ mKate2+A549 cells (FIG. 6F, left panel) was “delay of tumor growth was also observed”. Moreover, the “tumor spheroid size / elimination of tumor cells” value in the assay on CD19+ mKate2+A549 cells (co-culture 5-6 days, CAR-positive cell numbers normalized, FIG. 6E, 6F) is “significantly more efficiently eliminated”. Besides, the “proliferation rates as cause of improved killing capacity” value in the assay with CD19+ mKate2+A549 cells (data not shown) is given as “not due to increased proliferation rates”. In the assay with cGAS, the “cGAS localization (predominantly nuclear)” value is on record as “remained unchanged”.

B1: IRF3: interferon Regulatory Factor 3, over-expressed from lentivector (protein, UniProt Q14653 1-427, looked up)
Interferon regulatory factor 3: MGTPKPRILPWLVSQLDLGQLEGVAWVNKSRTRFRIPWKHGLRQDAQQEDFGIFQAWAEATGAYVPGRDKPDLPTWKRNFRSALNRKEGLRLAEDRSKDPHDPHKIYEFVNSGVGDFSQPDTSPDTNGGGSTSDTQEDILDELLGNMVLAPLPDPGPPSLAVAPEPCPQPLRSPSLDNPTPFPNLGPSENPLKRLLVPGEEWEFEVTAFYRGRQVFQQTISCPEGLRLVGSEVGDRTLPGWPVTLPDPGMSLTDRGVMSYVRHVLSCLGGGLALWRAGQWLWAQRLGHCHTYWAVSEELLPNSGHGPDGEVPKDKEGGVFDLGPFIVDLITFTEGSGRSPRYALWFCVGESWPQDQPWTKRLVMVKVVPTCLRALVEMARVGGASSLENTVDLHISNSHPLSLTSDQYKAYLQDLVEGMDFQGPGES
With B1, the “IFNL1 and IFNB transcripts in response to cGAMP” value in assay [1] is “increased”. The “cGAS localization (predominantly nuclear)” value in the assay on cGAS is “remained unchanged”.

For the origin of these results see patent publication US20250213614A1, “Modified RELA Protein for Inducing Interferon Expression and Engineered Immune Cells with Improved Interferon Expression” (Institut Curie, priority 2022, published 2025).
